Tests used:
[1] = tested on: CLL cells in PBMCs; experiment: CLL burden in B-I09-injected MD4+/−/Eμ-TCL1+/+ mice; type: in vivo, mouse; conditions: 50 mg/kg intraperitoneally, days 1-5 and 8-12
Procedure: FIGS. 24A-24J illustrate the finding that targeting XBP-1s in CLL cells of MD4^+/−/Eμ-TCL1^+/+ mice leads to reduced production of sIgM, and decreased numbers and function of granulocytic MDSCs. (FIG. 24A) The levels of IgM in the sera of MD4^+/−/Eμ-TCL1^+/+ and XBP-1^KO/MD4^+/−/Eμ-TCL1^+/+ mice were determined by ELISA. (FIG. 24B) Blood cells collected from MD4^+/−/Eμ-TCL1^+/+ and XBP-1^KO/MD4^+/−/Eμ-TCL1^+/+ mice were treated with RBC lysis buffer, and stained with CD11c-BV421, CD11b-PE, Ly6C-Alexa 488 and Ly6G-Alexa 647. Gated CD11c−/CD11b+ populations were analyzed for Ly6C^intermediate/Ly6G+ granulocytic MDSCs and Ly6C+/Ly6G− monocytic MDSCs. […] Gated CD11b+/Ly6C^intermediate/Ly6G+ granulocytic MDSCs were analyzed for the expression of Arg-1. (FIG. 24F) Mean fluorescence intensity (MFI) of Arg-1 in gated CD11b+/Ly6C^intermediate/Ly6G+ granulocytic MDSCs from spleens of 5 MD4^+/−/Eμ-TCL1^+/+ and 5 XBP-1^KO/MD4^+/−/Eμ-TCL1^+/+ mice was plotted as mean±SEM. […] The ^3H-thymidine uptake was measured, and the percentages of proliferation were calculated by comparing to the positive control and plotted as mean±SEM. […] The percentage of CLL cells in PBMCs for each mouse was determined by flow cytofluorometry on day 6 and day 13, and compared with the CLL burden data of the mouse on day 0 (100%). […]

[2] = tested on: Arg-1 in CD11b+/Ly6G+ granulocytic MDSCs; experiment: Arg-1 expression in granulocytic MDSCs of treated mice; type: in vivo, mouse; conditions: spleens of injected MD4+/−/Eμ-TCL1+/+ mice
[3] = tested on: secretory IgM, B cells; conditions: cited from earlier work
[4] = tested on: WaC3 cells; conditions: cited from earlier work

For O=c1oc2c(C3OCCCO3)c(O)ccc2c2c1CNCC2 [Compound 4, 7-(1,3-dioxan-2-yl)-8-hydroxy-1,2,3,4-tetrahydro-5H-chromeno[3,4-c]pyridin-5-one], the “CLL burden in peripheral blood” value [1] is listed as “leukemic regression was observed”, the “Arg-1 levels in granulocytic MDSCs versus DMSO-injected mice” value [2] is listed as “expressed decreased levels of Arg-1” and the “production of sIgM by treated B cells” value [3] is listed as “inefficient in producing sIgM”. The “sensitivity of WaC3 cells” value [4] was “sensitive”.

Reference: patent US11833137B2, “Substituted chromenones, IRE1 inhibitors, and methods of using same” (The Wistar Institute, priority 2018, dated 2023)
